ChEMBL document CHEMBL6087414, “Discovery of 4-(4-(3-(1-(2-(piperidin-1-yl)ethyl)-1H-benzo[d]imidazole-2-yl)isoxazol-5-yl)phenyl)morpholine as a novel c-Myc inhibitor against lung cancer in vitro and in vivo” (Eur J Med Chem, 2025)
Activity calls are given as the source filed them. No cut-off for these calls is given here.

Tests used:
[1] = system: A549; assay: Induction of apoptosis in human A549 cells incubated for 48 hrs by Annexin V-FITC/PI staining based flow cytometry; assay type: functional, cell-based; conditions: dose 5-15 µM
[2] = molecular target: Myc proto-oncogene protein (Homo sapiens) (UniProt P01106); assay: Inhibition of c-Myc transcriptional activity (unknown origin) at 10 uM by luciferase reporter gene assay
[3] = molecular target: Myc proto-oncogene protein (Homo sapiens) (UniProt P01106); assay: Inhibition of c-Myc in human NCI-H1299 cells by Western blot analysis; assay type: cell-based; conditions: dose <= 10.0 µM
[4] = system: Lewis lung carcinoma cell line; assay: Antitumor activity against mouse Lewis lung carcinoma cells allografted in C57BL/6 mouse at 20 mg/kg, ip administered every two days for 28 days relative to control; assay type: functional; conditions: 672 h, time 28 day, read-out: TGI
[5] = Toxicity in C57BL/6 mouse allografted with mouse Lewis lung carcinoma cells assessed as pathological damage in spleen at 20 mg/kg, ip administered every two days for 28 days by H and E staining based analysis; assay type: organism-based; conditions: in vivo, 672 h, time 28 day
[6] = Toxicity in C57BL/6 mouse allografted with mouse Lewis lung carcinoma cells assessed as discernible signs of toxicity at 20 to 40 mg/kg, ip administered every two days for 28 days; assay type: organism-based; conditions: in vivo, 672 h, dose 20-40 mg/kg, time 28 day
[7] = system: A549; assay: Induction of apoptosis in human A549 cells assessed as viable cells at 2.5 uM incubated for 48 hrs by Annexin V-FITC/PI staining based flow cytometry (reference value: 87.8 %); assay type: functional; conditions: read-out: Activity
[8] = system: A549; assay: Induction of apoptosis in human A549 cells assessed as early apoptotic cells at 5 uM incubated for 48 hrs by Annexin V-FITC/PI staining based flow cytometry (reference value: 5.02 %); assay type: functional
[9] = system: A549; assay: Induction of apoptosis in human A549 cells assessed as early apoptotic cells at 2.5 uM incubated for 48 hrs by Annexin V-FITC/PI staining based flow cytometry (reference value: 5.02 %); assay type: functional
[10] = system: A549; assay: Induction of apoptosis in human A549 cells at 5 to 15 uM incubated for 48 hrs by Annexin V-FITC/PI staining based flow cytometry relative to control; assay type: functional; conditions: dose 5-15 µM
[11] = Toxicity in C57BL/6 mouse allografted with mouse Lewis lung carcinoma cells assessed as pathological damage in kidneys at 20 mg/kg, ip administered every two days for 28 days by H and E staining based analysis; assay type: organism-based, Kidney; conditions: in vivo, 672 h, time 28 day
[12] = system: A549; assay: Induction of apoptosis in human A549 cells assessed as late apoptotic cells at 10 uM incubated for 48 hrs by Annexin V-FITC/PI staining based flow cytometry (reference value: 5.79 %); assay type: functional
[13] = Toxicity in C57BL/6 mouse allografted with mouse Lewis lung carcinoma cells assessed as pathological damage in heart at 20 mg/kg, ip administered every two days for 28 days by H and E staining based analysis; assay type: organism-based; conditions: in vivo, 672 h, time 28 day
[14] = system: A549; assay: Induction of apoptosis in human A549 cells assessed as late apoptotic cells at 5 uM incubated for 48 hrs by Annexin V-FITC/PI staining based flow cytometry (reference value: 5.79 %); assay type: functional
[15] = system: A549; assay: Induction of apoptosis in human A549 cells assessed as decrease in Bcl-2 level at 2.5 to 10 uM incubated for 48 hrs by Western blot analysis; assay type: functional, cell-based; conditions: dose 2.5-10 µM
[16] = system: A549; assay: Induction of apoptosis in human A549 cells assessed as necrotic cells at 10 uM incubated for 48 hrs by Annexin V-FITC/PI staining based flow cytometry (reference value: 1.41 %); assay type: functional
[17] = system: A549; assay: Effect on c-Myc mRNA expression in human A549 cells at 10 uM by Q-PCR analysis; assay type: functional, cell-based
[18] = system: A549; assay: Cytotoxicity against human A549 cells assessed as inhibition of cell viability incubated for 48 hrs by CCK8 assay; assay type: functional, cell-based; conditions: A549, 48 h
[19] = system: Lewis lung carcinoma cell line; assay: Antitumor activity against mouse Lewis lung carcinoma cells allografted in C57BL/6 mouse at 40 mg/kg, ip administered every two days for 28 days relative to control; assay type: functional; conditions: 672 h, time 28 day, read-out: TGI
[20] = system: A549; assay: Induction of apoptosis in human A549 cells assessed as activation of caspase-3 cleavage at 2.5 to 10 uM incubated for 48 hrs by Western blot analysis; assay type: functional, cell-based; conditions: dose 2.5-10 µM
[21] = Toxicity in C57BL/6 mouse allografted with mouse Lewis lung carcinoma cells assessed as pathological damage in liver at 20 mg/kg, ip administered every two days for 28 days by H and E staining based analysis; assay type: organism-based; conditions: in vivo, 672 h, time 28 day
[22] = system: A549; assay: Induction of apoptosis in human A549 cells assessed as activation of caspase-9 cleavage at 2.5 to 10 uM incubated for 48 hrs by Western blot analysis; assay type: functional, cell-based; conditions: dose 2.5-10 µM
[23] = molecular target: Myc proto-oncogene protein (Homo sapiens) (UniProt P01106); assay: Inhibition of c-Myc in human A549 cells at 10 uM incubated for 24 hrs in presence of MG132 by Western blot analysis; assay type: cell-based
[24] = molecular target: Myc proto-oncogene protein (Homo sapiens) (UniProt P01106); assay: Inhibition of c-Myc in human A549 cells by Western blot analysis; assay type: cell-based; conditions: dose <= 10.0 µM
[25] = system: A549; assay: Induction of apoptosis in human A549 cells assessed as necrotic cells at 2.5 uM incubated for 48 hrs by Annexin V-FITC/PI staining based flow cytometry (reference value: 1.41 %); assay type: functional
[26] = system: Lewis lung carcinoma; assay: In vivo inhibition of c-Myc in mouse Lewis lung carcinoma cells allografted in C57BL/6 mouse at 20 to 40 mg/kg, ip administered every two days for 28 days by Western blot analysis; assay type: functional, organism-based; conditions: dose 20-40 mg/kg, time 28.0 day
[27] = system: A549; assay: Induction of apoptosis in human A549 cells assessed as necrotic cells at 5 uM incubated for 48 hrs by Annexin V-FITC/PI staining based flow cytometry (reference value: 1.41 %); assay type: functional
[28] = system: A549; assay: Induction of apoptosis in human A549 cells assessed as viable cells at 5 uM incubated for 48 hrs by Annexin V-FITC/PI staining based flow cytometry (reference value: 87.8 %); assay type: functional; conditions: read-out: Activity
[29] = molecular target: c-Myc/c-Max (Homo sapiens) (UniProt P01106+P61244); assay: Disruption of c-Myc-Max interaction in human A549 cells assessed as decrease in at 10 uM incubated for 48 hrs by immunoprecipitation method; assay type: cell-based
[30] = system: A549; assay: Induction of apoptosis in human A549 cells assessed as increase in BAD level at 2.5 to 10 uM incubated for 48 hrs by Western blot analysis; assay type: functional, cell-based; conditions: dose 2.5-10 µM
[31] = system: A549; assay: Induction of apoptosis in human A549 cells assessed as late apoptotic cells at 2.5 uM incubated for 48 hrs by Annexin V-FITC/PI staining based flow cytometry (reference value: 5.79 %); assay type: functional
[32] = system: Lewis lung carcinoma cell line; assay: Antitumor activity against mouse Lewis lung carcinoma cells allografted in C57BL/6 mouse assessed as inhibition of tumor growth administered intraperitoneally every two days for 28 days; assay type: functional, cell-based; conditions: dose 20-40 mg/kg, route ip, time 28.0 day
[33] = system: A549; assay: Induction of apoptosis in human A549 cells assessed as viable cells at 10 uM incubated for 48 hrs by Annexin V-FITC/PI staining based flow cytometry (reference value: 87.8 %); assay type: functional; conditions: read-out: Activity
[34] = system: A549; assay: Induction of apoptosis in human A549 cells assessed as early apoptotic cells at 10 uM incubated for 48 hrs by Annexin V-FITC/PI staining based flow cytometry (reference value: 5.02 %); assay type: functional
[35] = system: A549; assay: Induction of apoptosis in human A549 cells assessed as increase in BAX level at 2.5 to 10 uM incubated for 48 hrs by Western blot analysis; assay type: functional, cell-based; conditions: dose 2.5-10 µM
[36] = Toxicity in C57BL/6 mouse allografted with mouse Lewis lung carcinoma cells assessed as body weight loss at 20 to 40 mg/kg, ip administered every two days for 28 days; assay type: organism-based; conditions: in vivo, 672 h, dose 20-40 mg/kg, time 28 day
[37] = system: NCI-H1299; assay: Cytotoxicity against human NCI-H1299 cells assessed as inhibition of cell viability incubated for 48 hrs by CCK8 assay; assay type: functional, cell-based; conditions: NCI-H1299, 48 h
[38] = molecular target: Myc proto-oncogene protein (Homo sapiens) (UniProt P01106); assay: Inhibition of c-Myc in human A549 cells assessed as decrease in half life at 10 uM pretreated for 12 hrs followed by CHX treatment for 1 to 2 hrs by Western blot analysis; assay type: cell-based; conditions: time 13-14 hrs
[39] = Cytotoxicity against human BEAS-2B cells assessed as cell viability upto 20 uM incubated for 48 hrs by CCK8 assay relative to control; assay type: toxicity, cell-based; conditions: read-out: Activity

Chain of Myc proto-oncogene protein (Homo sapiens) (P01106 whole entry): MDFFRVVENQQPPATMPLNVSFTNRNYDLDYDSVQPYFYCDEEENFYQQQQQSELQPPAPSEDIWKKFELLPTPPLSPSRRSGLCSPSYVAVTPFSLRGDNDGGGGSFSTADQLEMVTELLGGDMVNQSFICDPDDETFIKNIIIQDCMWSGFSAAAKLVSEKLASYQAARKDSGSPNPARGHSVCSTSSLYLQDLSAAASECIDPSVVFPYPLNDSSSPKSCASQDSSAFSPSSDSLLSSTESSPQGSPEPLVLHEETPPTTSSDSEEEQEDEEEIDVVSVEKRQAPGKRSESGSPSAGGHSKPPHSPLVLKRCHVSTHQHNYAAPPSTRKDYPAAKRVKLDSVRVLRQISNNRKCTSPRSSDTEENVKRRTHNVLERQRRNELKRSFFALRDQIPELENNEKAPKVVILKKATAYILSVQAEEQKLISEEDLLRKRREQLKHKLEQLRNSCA
Chain of c-Myc/c-Max (Homo sapiens) (P01106 whole entry): as above
Chain of c-Myc/c-Max (Homo sapiens) (P61244 2-160 partner limits assumed): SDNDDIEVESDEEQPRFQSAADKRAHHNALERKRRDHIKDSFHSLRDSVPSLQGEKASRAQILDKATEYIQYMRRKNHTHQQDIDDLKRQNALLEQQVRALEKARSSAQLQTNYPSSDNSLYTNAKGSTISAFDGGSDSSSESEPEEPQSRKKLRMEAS

Compound: c1ccc2c(c1)nc(-c1cc(-c3ccc(N4CCOCC4)cc3)on1)n2CCN1CCCCC1
- Activity [1]: Dose-dependent-effect
- inhibition [2]: Active
- inhibition [3]: Dose-dependent-effect
- inhibition in vivo at 20 mg/kg [4]: 59.9%
- Activity [5]: Non-toxic
- Activity [6]: Non-toxic
- viability at 2.5 µM [7]: 70.1%
- Activity [8]: 9.5%
- Activity [9]: 8.46%
- Activity [10]: 27%
- Activity [11]: Non-toxic
- Activity [12]: 33%
- Activity [13]: Non-toxic
- Activity [14]: 19.6%
- Activity [15]: Active
- Activity [16]: 3.05%
- Activity [17]: inactive
- IC50 [18]: 4.08 µM
- inhibition in vivo at 40 mg/kg [19]: 76.4%
- Activity [20]: Active
- Activity [21]: Non-toxic
- Activity [22]: Active
- inhibition [23]: inactive
- inhibition [24]: Dose-dependent-effect
- Activity [25]: 2.76%
- inhibition [26]: Active
- Activity [27]: 2.63%
- viability at 5 µM [28]: 68.3%
- Activity [29]: Active
- Activity [30]: Active
- Activity [31]: 18.7%
- inhibition [32]: Active
- viability at 10 µM [33]: 26.1%
- Activity [34]: 37.8%
- Activity [35]: Active
- Activity [36]: Non-toxic
- IC50 [37]: 7.86 µM
- inhibition [38]: Active
- viability at 48 h, 20 µM [39]: > 90%
